Drawing on patent US10717720B2, “Modified compound of andrographolide” (Heilongjiang Zhenbaodao Pharmaceutical Co., Ltd., priority 2015, dated 2020), this text covers inhibition for 26 compounds.

The subject of one assay is LPS-induced IL-6 release level from THP-1 cells. The experiment in a line: Test of IL-6 release from THP-1 cells (LPS-induced, IL-6 in supernatant detected by CBA). Type of assay: cell-based. Conditions: Homo sapiens, THP-1, 24 h, read-out: Inhibition rate @ 10 uM. As for the experimental part:
Test of IL-6 Release from THP-1 Cells
The inhibitory effect of the compound on LPS-induced IL-6 release level from THP-1 cells was evaluated by measuring the level of IL-6 in the cell culture supernatant.
4 ul was taken from each above solution and added to lml of culture solution to make 120 uM, 40 uM, 12 uM, 4 uM. 50 ul per well was taken and added to wells with cells to give final concentrations of 30 uM, 10 uM, 3 uM, and 1 uM, respectively. Dexamethasone was added as a positive drug into an individual cell well with a final concentration of 100 nM. • c) Cell stimulation
The LPS 1 mg/ml solution was diluted to 800 ng/ml with the culture solution and added to the cell culture wells at 50 ul/well. • d) Cell incubation and detection
The cell culture plate was placed in a 37° C. incubator, and the supernatant was collected after culturing for 24 hours. The level of IL-6 in the supernatant was detected by CBA.
With `C=C1CCC2[C@]3(C)CO[C@@H](C4CCCC4)O[C@@H]3CC[C@@]2(C)[C@@H]1CCNc1ccncc1F` (stereo partly drawn) [Compound 345, N-(2-((3R,4aR,6aS,7R,10bR)-3-cyclopentyl-6a,10b-dimethyl-8-decahydromethylene-1H-naphtho[2,1-d][1,3]dioxin-7-yl)ethyl)-3-fluoropyridin-4-amine], the inhibition (as a rule, the share of the control response that was lost under treatment) at 10 µM was 30 to 60%.
In the case of `C=C1CCC2[C@]3(C)CO[C@@H](C4CCCC4)O[C@@H]3CC[C@@]2(C)[C@@H]1CCOC1CCN(C(=O)CN)CC1` (stereo partly drawn) [Compound 373, 2-Amino-1-(4-(2-((3R,4aR,6aS,7R,10bR)-3-cyclopentyl-6a,10b-dimethyl-8-methylenedecahydro-1H-naphtho[2,1-d][1,3]dioxin-7-yl)ethoxy)piperidine-1-yl)acetamide], the inhibition at 10 µM was 30 to 60%.
Regarding `C=C1CCC2[C@]3(C)CO[C@@H](C4CCCC4)O[C@@H]3CC[C@@]2(C)[C@@H]1CCN(CC(=O)O)CC(=O)O` (stereo partly drawn) [Compound 404, 2,2′-((2-((3R,4aR,6aS,7R,10bR)-3-cyclopentyl-6a,10b-dimethyl-8-methylene-decahydro-1H-naphtho[2,1-d][1,3]dioxin-7-yl)ethyl)azanediyl)diacetic acid], the inhibition at 10 µM was under 30%.
Same read-out and setting: with `C=C1CCC2[C@]3(C)CO[C@@H](C4CCCC4)O[C@@H]3CC[C@@]2(C)[C@@H]1CCOc1cncc(C(=O)O)c1` (stereo partly drawn) [Compound 406, 5-(2-((3R,4aR,6aS,7R,10bR)-3-cyclopentyl-6a,10b-dimethyl-8-dihydromethylenedecahydro-1H-naphtho[2,1-d][1,3]dioxin-7-yl)ethoxy)nicotinic acid] the figure was under 30%.

The same assay, now with this note: Homo sapiens; inflammatory factor IL-6 detected by CBA; compound 10 uM; LPS-stimulated THP-1 cells, supernatant after 24 hours; read-out: Inhibition rate @ 10 uM.
For `C=C1CCC2[C@]3(C)CO[C@@H](C4CCCC4)O[C@@H]3CC[C@@]2(C)[C@@H]1CCOc1ccccn1` (stereo partly drawn) [Compound 317, 2-(2-((3R,4aR,6aS,7R,10bR)-3-cyclopentyl-6a,10b-dimethyl-8-dihydromethylenedecahydro-1H-naphtho[2,1-d][1,3]dioxin-7-yl)ethoxy) pyridine], the inhibition at 10 µM is over 60%.
With `C=C1CCC2[C@]3(C)CO[C@@H](C4CCCC4)O[C@@H]3CC[C@@]2(C)[C@@H]1CCOc1ccnc(C)c1` (stereo partly drawn) [Compound 319, 4-(2-((3R,4aR,6aS,7R,10bR)-3-cyclopentyl-6a,10b-dimethyl-8-dihydromethylenedecahydro-1H-naphtho[2,1-d][1,3]dioxin-7-yl)ethoxy)-2-methylpyridine], the inhibition at 10 µM lay within 30 to 60%.
In the case of `C=C1CCC2[C@]3(C)CO[C@@H](C4CCCC4)O[C@@H]3CC[C@@]2(C)[C@@H]1CCOc1ccnc(N)c1` (stereo partly drawn) [Compound 321, 4-(2-((3R,4aR,6aS,7R,10bR)-3-cyclopentyl-6a,10b-dimethyl-8-dihydromethylenedecahydro-1H-naphtho[2,1-d][1,3]dioxin-7-yl)ethoxy)-pyridin-2-amine], the inhibition at 10 µM was under 30%.
On the same count and under the same terms, with `C=C1CCC2[C@]3(C)CO[C@@H](C4CCCC4)O[C@@H]3CC[C@@]2(C)[C@@H]1CCOc1ccncc1N` (some centres unmarked) [Compound 339] the figure was under 30%; with `C=C1CCC2[C@]3(C)CO[C@@H](C4CCCC4)O[C@@H]3CC[C@@]2(C)[C@@H]1CCOc1ccncc1F` (stereo partly drawn) [Compound 344, 4-(2-((3R,4aR,6aS,7R,10bR)-3-cyclopentyl-6a,10b-dimethyl-8-dihydromethylenedecahydro-1H-naphtho[2,1-d][1,3]dioxin-7-yl)ethoxy)-3-fluoropyridine], over 60%; with `C=C1CCC2[C@]3(C)CO[C@@H](C4CCCC4)O[C@@H]3CC[C@@]2(C)[C@@H]1CCOc1ccncc1C#N` (stereo partly drawn) [Compound 349, 4-(2-((3R,4aR,6aS,7R,10bR)-3-cyclopentyl-6a,10b-dimethyl-8-dihydromethylenedecahydro-1H-naphtho[2,1-d][1,3]dioxin-7-yl)ethoxy)cyanopyridine], over 60%.
Regarding `C=C1CCC2[C@]3(C)CO[C@@H](C4CCCC4)O[C@@H]3CC[C@@]2(C)[C@@H]1CCOCc1ccncc1` (stereo partly drawn) [Compound 351, 4-((2-((3R,4aR,6aS,7R,10bR)-3-cyclopentyl-6a,10b-dimethyl-8-dihydromethylenedecahydro-1H-naphtho[2,1-d][1,3]dioxin-7-yl)ethoxy)methyl)pyridine], the inhibition at 10 µM was over 60%.
Turning to `C=C1CCC2[C@]3(C)CO[C@@H](C4CCCC4)O[C@@H]3CC[C@@]2(C)[C@@H]1CCN1CC(CO)C1` (some centres unmarked) [Compound 355], the inhibition at 10 µM was under 30%.
Take `C=C1CCC2[C@]3(C)CO[C@@H](C4CCCC4)O[C@@H]3CC[C@@]2(C)[C@@H]1CCOc1ccn(C)c(=O)c1` (stereo partly drawn) [Compound 357, 4-(2-((3R,4aR,6aS,7R,10bR)-3-cyclopentyl-6a,10b-dimethyl-8-dihydromethylenedecahydro-1H-naphtho[2,1-d][1,3]dioxin-7-yl)ethoxy)-1-methylpyridin-2(1H)-one]: the inhibition at 10 µM is over 60%.
Turning to `C=C1CCC2[C@]3(C)CO[C@@H](C4CCCC4)O[C@@H]3CC[C@@]2(C)[C@@H]1CCOC1CCN(C)CC1` (stereo partly drawn) [Compound 366, 4-(2-((3R,4aR,6aS,7R,10bR)-3-cyclopentyl-6a,10b-dimethyl-8-dihydromethylenedecahydro-1H-naphtho[2,1-d][1,3]dioxin-7-yl)ethoxy)-1-methylpiperidine], the inhibition at 10 µM was over 60%.
Same read-out and setting: under `C=C1CCC2[C@](C)(CO)[C@H](O)CC[C@@]2(C)[C@@H]1CCOc1ccncc1` (stereo partly drawn) [Compound 385, (1R,2R,4aS,5R)-1-(hydroxymethyl)-1,4a-dimethyl-6-dihydromethylene-5-(2-(pyridin-4-oxy)ethyl) decahydronaphthalene-2-ol] stands over 60%; under `C=C1CCC2[C@](C)(CO)[C@H](O)CC[C@@]2(C)[C@@H]1CCOC1CCN(C)CC1` (stereo partly drawn) [Compound 386, (1R,2R,4aS,5R)-1-(hydroxymethyl)-1,4a-dimethyl-6-dihydromethylene-5-(2-((1-methylpiperidine-4-yl)oxy)ethyl) decahydronaphthalene-2-ol], under 30%.
On to `C=C1CCC2[C@]3(C)CO[C@@H](C4CCCC4)O[C@@H]3CC[C@@]2(C)[C@@H]1CCOc1ccncc1C(=O)O` (stereo partly drawn) [Compound 397, 4-(2-((3R,4aR,6aS,7R,10bR)-3-cyclopentyl-6a,10b-dimethyl-8-dihydromethylenedecahydro-1H-naphtho[2,1-d][1,3]dioxin-7-yl)ethoxy)nicotinic acid], for which the inhibition at 10 µM is over 60%.
As to `C=C1CCC2[C@]3(C)CO[C@@H](C4CCCC4)O[C@@H]3CC[C@@]2(C)[C@@H]1CCO` (stereo partly drawn) [Compound 399, 2-((3R,4aR,6aS,7R,10bR)-3-cyclopentyl-6a,10b-dimethyl-8-dihydromethylenedecahydro-1H-naphtho[2,1-d][1,3]dioxin-7-yl)ethanol], the inhibition at 10 µM was over 60%.
For `C=C1CCC2[C@]3(C)CO[C@@H](C4CC4)O[C@@H]3CC[C@@]2(C)[C@@H]1CCOc1ccncc1` (stereo partly drawn) [Compound 400, 4-(2-((3R,4aR,6aS,7R,10bR)-3-cyclopropyl-6a,10b-dimethyl-8-dihydromethylenedecahydro-1H-naphtho[2,1-d][1,3]dioxin-7-yl)ethoxy)pyridine], the inhibition at 10 µM was over 60%.
Same read-out and setting: with `C=C1CCC2[C@]3(C)COC(C)(C)O[C@@H]3CC[C@@]2(C)[C@@H]1CCOc1ccncc1` (stereo partly drawn) [Compound 402, 4-(2-((4aR,6aS,7R,10bR)-3,3,6a, 10b-tetramethyl-8-dihydromethylenedecahydro-1H-naphtho[2,1-d][1,3]dioxin-7-yl)ethoxy)pyridine] the figure was over 60%.
Regarding `C=C1CCC2[C@]3(C)CO[C@@H](C4CCCC4)O[C@@H]3CC[C@@]2(C)[C@@H]1CCNCC(=O)O` (stereo partly drawn) [Compound 403, 2-((2-((3R,4aR,6aS,7R,10bR)-3-cyclopentyl-6a,10b-dimethyl-8-methylenedecahydro-1H-naphtho[2,1-d][1,3]dioxin-7-yl)ethyl)amino)acetic acid], the inhibition at 10 µM is under 30%.
The same measure, in the same setting: under `C=C1CCC2[C@]3(C)CO[C@@H](CCC(=O)OC)O[C@@H]3CC[C@@]2(C)[C@@H]1CCOc1ccncc1` (some centres unmarked) [Compound 405] stands under 30%; under `C=C1CCC2[C@]3(C)CO[C@@H](C4CCCC4)O[C@@H]3CC[C@@]2(C)[C@@H]1CCOc1ccccc1C(=O)O` (stereo partly drawn) [Compound 407, 2-(2-((3R,4aR,6aS,7R,10bR)-3-cyclopentyl-6a,10b-dimethyl-8-dihydromethylenedecahydro-1H-naphtho[2,1-d][1,3]dioxin-7-yl)ethoxy)benzoic acid], over 60%; under `C=C1CCC2[C@]3(C)CO[C@@H](CCC(=O)O)O[C@@H]3CC[C@@]2(C)[C@@H]1CCOc1ccncc1` (some centres unmarked) [Compound 408], under 30%.
Same read-out and setting: under `C=C1CCC2[C@]3(C)CO[C@@H](C4CCCC4)O[C@@H]3CC[C@@]2(C)[C@@H]1CCOc1ccc(F)cc1C(=O)O` (stereo partly drawn) [Compound 409, 2-(2-((3R,4aR,6aS,7R,10bR)-3-cyclopentyl-6a,10b-dimethyl-8-dihydromethylenedecahydro-1H-naphtho[2,1-d][1,3]dioxin-7-yl)ethoxy)-5-fluorobenzoic acid] stands under 30%.
As to `C=C1CCC2[C@]3(C)CO[C@@H](C4CCCC4)O[C@@H]3CC[C@@]2(C)[C@@H]1CCOc1ccnc(C(=O)O)c1` (stereo partly drawn) [Compound 410, 4-(2-((3R,4aR,6aS,7R,10bR)-3-cyclopentyl-6a,10b-dimethyl-8-dihydromethylenedecahydro-1H-naphtho[2,1-d][1,3]dioxin-7-yl)ethoxy)picolinic acid], the inhibition at 10 µM lay in the range of 30 to 60%.
